Test results as given in patent publication EP2141164A1, “New 1,2,4-triazine derivatives and biological applications thereof” (priority 2008, dated 2010).

These molecules were tested on E. coli K12 AcrAB- TolC- (assay: Sensitization to complement killing assay (MIC with/without serum)). Details: Escherichia coli, read-out: MIC for E. coli K12 AcrAB- TolC-, FBS=0 (MH2 broth only); 18-22H at 35°C.
Assay type: cell-based
Protocol: The Gram-negative bacteria E. coli K12 AcrAB-/TolC- (K12 strain for which efflux pump components AcrA, AcrB and TolC have been deleted) is grown on Müller Hinton agar (MHA) overnight at 35°C. Five well isolated colonies from overnight agar growth are then added to 10 mL of cation adjusted Müller-Hinton Broth (MH2) and incubated at 35°C with constant shaking for two hours to reach the exponential phase. The suspension is then diluted to obtain an inoculum of 1.5E+04 CFU/mL. Viable counts are obtained by plating 10 to 1000-fold dilutions of the suspension on MHA. A solution of decomplemented Foetal Bovine Serum (dFBS) is prepared by heating normal FBS at 56°C for 30min. Compound dilutions are prepared in DMSO/water 20/80 in polypropylene plates. The following components are added on a polystyrene sterile culture plate in a final volume of 100µL: 5µL of compound in 20% DMSO, 30µL of FBS (30% final) or dFBS (30% final) or MH2 (0% FBS), 65µL of bacterial suspension at 1.5e4 CFU/mL (final inoculum of 1e4 CFU/mL). After 18-22H at 35°C incubation, the MIC of the compound in the presence of FBS 30%, dFBS 30% or FBS 0% is determined by visual inspection of bacterial pellets.
`O=C(COc1ccc2sc(CNc3nncc(-c4c(Cl)cccc4Cl)n3)nc2c1)NCCO` [Example 18, 2-(2-{[5-(2,6-Dichloro-phenyl)-[1,2,4]triazin-3-ylamino]-methyl}-benzothiazol-5-yloxy)-N-(2-hydroxy-ethyl)-acetamide] showed an MIC greater than 32 µg/mL.

Same assay, conditions: Escherichia coli, read-out: MIC for E. coli K12 AcrAB- TolC-, decomplemented FBS=30%; 18-22H at 35°C
`O=C(COc1ccc2sc(CNc3nncc(-c4c(Cl)cccc4Cl)n3)nc2c1)NCCO` [Example 18, 2-(2-{[5-(2,6-Dichloro-phenyl)-[1,2,4]triazin-3-ylamino]-methyl}-benzothiazol-5-yloxy)-N-(2-hydroxy-ethyl)-acetamide] was tested, and the MIC was greater than 32 µg/mL.

Same assay, conditions: Escherichia coli, read-out: MIC for E. coli K12 AcrAB- TolC-, normal (complemented) FBS=30%; 18-22H at 35°C
`O=C(COc1ccc2sc(CNc3nncc(-c4c(Cl)cccc4Cl)n3)nc2c1)NCCO` [Example 18, 2-(2-{[5-(2,6-Dichloro-phenyl)-[1,2,4]triazin-3-ylamino]-methyl}-benzothiazol-5-yloxy)-N-(2-hydroxy-ethyl)-acetamide] was tested, and the MIC was 4 µg/mL.

These molecules were tested against T1, RfaE (Escherichia coli, UniProt P76658) (assay: RfaE luminescent assay (inhibition of the enzymatic activity of RfaE)). Details: luminescent ATP detection; 3 nM RfaE, 0.2 µM β-heptose-7-phosphate, 0.2 µM ATP; 30 min pre-incubation.
T1 construct: made in house; host or cells: E.coli
T1 sequence (P76658 whole entry): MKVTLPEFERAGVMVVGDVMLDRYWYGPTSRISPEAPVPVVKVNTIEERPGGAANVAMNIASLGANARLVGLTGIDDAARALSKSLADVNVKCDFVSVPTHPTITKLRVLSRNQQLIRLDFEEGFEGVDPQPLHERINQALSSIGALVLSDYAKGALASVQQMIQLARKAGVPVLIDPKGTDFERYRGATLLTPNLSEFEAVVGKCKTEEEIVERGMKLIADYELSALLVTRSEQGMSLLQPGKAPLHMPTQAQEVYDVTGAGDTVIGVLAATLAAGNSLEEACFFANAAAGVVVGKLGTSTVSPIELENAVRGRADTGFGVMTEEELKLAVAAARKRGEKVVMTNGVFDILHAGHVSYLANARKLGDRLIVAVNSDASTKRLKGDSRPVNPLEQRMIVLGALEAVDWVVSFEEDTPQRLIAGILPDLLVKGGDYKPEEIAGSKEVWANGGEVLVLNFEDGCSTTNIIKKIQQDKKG
Assay type: biochemical, E.coli
From the text: RfaE is a kinase sharing similarities with the ribokinases family. It catalyses an essential step of the biosynthesis of L-ADP-Heptose, namely the phosphorylation of β-heptose-7-phosphate (H7P) into β-heptose-1,7-bisphosphate (H1,7P). RfaE assays as described in the literature are essentially based on direct HLPC detection of the substrates H7P and ATP, and of the products H1,7P and ADP, raising obvious limitations for HTS applications. The assays described below are based either on luminescent ATP detection, or on fluorescent ADP detection. They are easily amenable to miniaturized formats and fast readouts as required by HTS.
The assay buffer "AB" contains 50 mM Hepes pH=7.5, 1 mM MnCl2, 25 mM KCI, 0.012% Triton-X100 and 1 mM DTT (Dithiothreitol). The following components are added in a white polystyrene Costar plate up to a final volume of 31 µL: 3 µL DMSO, or inhibitor dissolved in DMSO and 28 µL RfaE in AB. After 30min of pre-incubation at room temperature, 29 µL of Substrates mix in AB are added in each well to a final volume of 60 µL. This reaction mixture is then composed of 3 nM RfaE (produced in house from E.coli), 0.2 µM β -heptose-7-phosphate (in house synthesis) and 0.2 µM ATP (Sigma) in assay buffer. After 40min of incubation at room temperature, 200 µL of the revelation mix are added to a final volume of 260 µL, including the following constituents at the respective final concentrations: 2 nM luciferase (Sigma), 30 µM D-luciferin (Sigma), 100 µM N-acetylcysteamine (Aldrich). Luminescence intensity is immediately measured on an Analyst-HT (Molecular Devices) and converted into inhibition percentages.
For IC50 determinations, the inhibitor is tested at 6 to 10 different concentrations, and the related inhibitions are fitted to a classical langmuir equilibrium model using XLFIT (IDBS).
Molecule `COc1ccc2sc(CNc3nncc(-c4cc(-c5ccn[nH]5)ccc4Cl)n3)nc2c1` [Example 97, 5-[2-Chloro-5-(1H-pyrazol-3-yl)phenyl]-N-[(5-methoxy-1,3-benzothiazol-2-yl)methyl]-1,2,4-triazin-3-amine] has an IC50 of 53 nM. In the case of `O=C(COc1ccc2sc(CNc3nncc(-c4c(Cl)cccc4Cl)n3)nc2c1)NCCO` [Example 18, 2-(2-{[5-(2,6-Dichloro-phenyl)-[1,2,4]triazin-3-ylamino]-methyl}-benzothiazol-5-yloxy)-N-(2-hydroxy-ethyl)-acetamide], the IC50 is reported as 47 nM. Work on `OCCOc1ccc2sc(CNc3nncc(-c4c(Cl)cccc4Cl)n3)nc2c1` [Example 16, 2-{[2-({[5-(2,6-Dichlorophenyl)-1,2,4-triazin-3-yl]amino}methyl)-1,3-benzothiazol-5-y]oxy}ethanol] yielded an IC50 of 18 nM. Molecule `Oc1ccc2ccccc2c1-c1cnnc(NCc2nc3ccccc3s2)n1` [Example 32, 1-{3-[(Benzothiazol-2-ylmethyl)-amino]-[1,2,4]triazin-5-yl}-naphthalen-2-ol] has an IC50 of 63 nM. `COc1cccc(OC)c1-c1cnnc(N(CC(=O)O)Cc2nc3ccccc3s2)n1` [Example 90, {(1,3-Benzothiazol-2-ylmethyl)[5-(2,6-dimethoxyphenyl)-1,2,4-triazin-3-yl]amino}acetic acid] showed an IC50 of 2000 nM. In the case of `COc1ccc2sc(CNc3nncc(-c4c(Cl)cccc4Cl)n3)nc2c1` [Example 15, 5-(2,6-Dichlorophenyl)-N-[(5-methoxy-1,3-benzothiazol-2-yl)methyl]-1,2,4-triazin-3-amine], the IC50 is reported as 130 nM. `COc1ccc2sc(CNc3nncc(-c4c(OC)ccc5ccccc45)n3)nc2c1` [Example 29, N-[(5-Methoxy-1,3-benzothiazol-2-yl)methyl]-5(2-methoxy-1-naphthyl)-1,2,4-triazin-3-amine] was tested, and the IC50 was 51 nM. `COc1ccc2ccccc2c1-c1cnnc(NCc2nc3ccccc3s2)n1` [Example 22, Benzothiazol-2-ylmethyl-[5-(2-methoxy-naphthalen-1-yl)-[1,2,4]triazin-3-yl]-amine] showed an IC50 of 130 nM. In the case of `COc1ccc2sc(CNc3nncc(-c4c(C)cc(NC(=O)CN(C)C)cc4C)n3)nc2c1` [Example 75, 2-Dimethylamino-N-(4-{3-[(5-methoxy-benzothiazol-2-ylmethyl)-amino]-[1,2,4]triazin-5-yl}-3,5-dimethyl-phenyl)-acetamide], the IC50 is reported as 190 nM. Molecule `COc1ccc2sc(CNc3nncc(-c4cc(-c5cn[nH]c5)ccc4Cl)n3)nc2c1` [Example 98, 5-[2-Chloro-5-(1H-pyrazol-4-yl)phenyl]-N-[(5-methoxy-1,3-benzothiazol-2-yl)methyl]-1,2,4-triazin-3-amine] has an IC50 of 49 nM. `CC(=O)COc1ccc2sc(CNc3nncc(-c4c(Cl)cccc4Cl)n3)nc2c1` [Example 20, 1-{[2-({[5-(2,6-Dichlorophenyl)-1,2,4-triazin-3-yl]amino}methyl)-1,3-benzothiazol-5-yl]oxy}acetone] was tested, and the IC50 was 77 nM. With `NCCSc1ccc2sc(CNc3nncc(-c4c(Cl)cccc4Cl)n3)nc2c1` [Example 94, N-({5-[(2-Aminoethyl)thio]-1,3-benzothiazol-2-yl}methyl)-5-(2,6-dichlorophenyl)-1,2,4-triazin-3-amine] the IC50 was 250 nM. Work on `NC(=O)COc1ccc2sc(CNc3nncc(-c4c(Cl)cccc4Cl)n3)nc2c1` [Example 21, 2-{[2-({[5-(2,6-Dichlorophenyl)-1,2,4-triazin-3-yl]amino}methyl)-1,3-benzothiazol-5-yl]oxy}acetamide] yielded an IC50 of 67 nM. For `COc1ccc2sc(CNc3nncc(-c4cc(-c5cn(CCO)nn5)ccc4Cl)n3)nc2c1` [Example 100, 2-[4-(4-Chloro-3-{3-[(5-methoxy-benzothiazol-2-ylmethyl)-amino]-[1,2,4]triazin-5-yl}-phenyl)-[1,2,3]triazol-1-yl]-ethanol], the IC50 was 255 nM. For `COc1ccc2sc(CNc3nncc(-c4c(C)cccc4O)n3)nc2c1` [Example 35, 2-(3-{[(5-Methoxy-1,3-benzothiazol-2-yl)methyl]amino}-1,2,4-triazin-5-yl)-3-methylphenol], the IC50 was 69 nM. `CN(C)CCNC(=O)COc1ccc2sc(CNc3nncc(-c4c(Cl)cccc4Cl)n3)nc2c1` [Example 19, 2-(2-{[5-(2,6-Dichloro-phenyl)-[1,2,4]triazin-3-ylamino]-methyl}-benzothiazol-5-yloxy)-N-(2-dimethylamino-ethyl)-acetamide] showed an IC50 of 165 nM. For `COc1ccc2sc(CNc3nncc(-c4ccc(N5CCNCC5)cc4Cl)n3)nc2c1` [Example 107, N-[(5-Methoxy-1,3-benzothiazol-2-yl)methyl]-5-(2-chloro-4-piperazin-1-ylphenyl)-1,2,4-triazin-3-amine], the IC50 was 670 nM. For `Cc1cccc(O)c1-c1cnnc(NCc2nc3cc(NCc4nccs4)ccc3s2)n1` [Example 43, 3-Methyl-2-{3-[({5-[(1,3-thiazol-2-ylmethyl)amino]-1,3-benzothiazol-2-yl}methyl)amino]-1,2,4-triazin-5-yl}phenol], the IC50 was 410 nM. With `Oc1ccc2sc(CNc3nncc(-c4c(O)ccc5ccccc45)n3)nc2c1` [Example 33, 2-{[5-(2-Hydroxy-naphthalen-1-yl)-[1,2,4]triazin-3-ylamino]-methyl}-benzothiazol-5-ol] the IC50 was 20 nM. `Cc1cc(NCCN(C)C)cc(C)c1-c1cnnc(NCc2nc3cc(OCCN)ccc3s2)n1` [Example 108, N-[4-(3-{[5-(2-Amino-ethoxy)-benzothiazol-2-ylmethyl]-amino}-[1,2,4]triazin-5-yl)-3,5-dimethyl-phenyl]-N',N'-dimethyl-ethane-1,2-diamine] showed an IC50 of 1400 nM. `O=C(O)COc1ccc2sc(CNc3nncc(-c4c(Cl)cccc4Cl)n3)nc2c1` [Example 17, {[2-({[5-(2,6-dichlorophenyl)-1,2,4-triazin-3-yl]amino}methyl)-1,3-benzothiazol-5-yl]oxy}acetic acid] was tested, and the IC50 was 19 nM. For `COc1ccc2sc(CNc3nncc(-c4cc(-c5cccnc5)ccc4Cl)n3)nc2c1` [Example 99, 5-(2-Chloro-5-pyridin-3-ylphenyl)-N-[(5-methoxy-1,3-benzothiazol-2-yl)methyl]-1,2,4-triazin-3-amine], the IC50 was 150 nM. For `COc1cccc(C)c1-c1cnnc(NCc2nc3cccnc3s2)n1` [Example 70, 5-(2-Methoxy-6-methylphenyl)-N-([1,3]thiazolo[5,4-b]pyridin-2-ylmethyl)-1,2,4-triazin-3-amine], the IC50 was 3100 nM. Work on `Cc1nc(CNc2nncc(-c3ccccc3Cl)n2)sc1C` [Example 9, 5-(2-Chlorophenyl)-N-[(4,5-dimethyl-1,3-thiazol-2-yl)methyl]-1,2,4-triazin-3-amine] yielded an IC50 of 4300 nM. Molecule `Oc1cccc2sc(CNc3nncc(-c4ccccc4C(F)(F)F)n3)nc12` [Example 64, 2-[({5-[2-(Trifluoromethyl)phenyl]-1,2,4-triazin-3-yl}amino)methyl]-1,3-benzothiazol-4-ol] has an IC50 of 5600 nM. Work on `COc1cccc(OC)c1-c1cnnc(NCc2nc3c(s2)CCCC3)n1` [Example 57, 5-(2,6-Dimethoxyphenyl)-N-(4,5,6,7-tetrahydro-1,3-benzothiazol-2-ylmethyl)-1,2,4-triazin-3-amine] yielded an IC50 of 1900 nM.
